Data from BindingDB's records for doi:10.7270/Q2TX3CTT (Broad Institute, 2010).
Where a name gives a salt, the structure may show the parent alone.

The compounds below were run against Glycogen synthase kinase-3 beta (Homo sapiens, UniProt P49841) (assay: concentration-response blocking of human GSK3B – biochemical, luminescence, cell-free homogeneous, retest, dose response (AID 434954)).
Chain of Glycogen synthase kinase-3 beta (P49841 whole entry): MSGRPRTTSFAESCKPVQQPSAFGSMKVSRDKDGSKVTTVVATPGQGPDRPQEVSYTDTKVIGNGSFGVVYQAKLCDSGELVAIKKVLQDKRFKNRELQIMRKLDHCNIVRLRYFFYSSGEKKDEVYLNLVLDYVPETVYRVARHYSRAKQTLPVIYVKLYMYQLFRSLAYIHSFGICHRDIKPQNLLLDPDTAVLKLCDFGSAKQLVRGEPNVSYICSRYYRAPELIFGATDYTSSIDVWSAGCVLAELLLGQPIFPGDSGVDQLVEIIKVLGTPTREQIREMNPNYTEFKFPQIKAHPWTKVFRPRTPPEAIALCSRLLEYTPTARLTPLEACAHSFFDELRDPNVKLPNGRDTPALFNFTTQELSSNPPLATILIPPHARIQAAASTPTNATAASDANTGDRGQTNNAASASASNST

`O=C(O)c1ccccc1Nc1ccccc1C(=O)O` [2-[(2-carboxyphenyl)amino]benzoic acid] and `O=C(Nc1ccccc1C(=O)O)c1nnc[nH]1` cannot be ordered by EC50: over 300 µM for the first, over 300 µM for the second.

Going from `CCc1ccc(C=NNC(=O)c2nnn(-c3nonc3N)c2CN2CCc3ccccc32)cc1` [1-(4-amino-1,2,5-oxadiazol-3-yl)-5-(2,3-dihydroindol-1-ylmethyl)-N-[(4-ethylphenyl)methylideneamino]triazole-4-carboxamide] to `CN(Cc1c(C(=O)NN=Cc2cccc(O)c2)nnn1-c1nonc1N)C1CCCCC1` [MLS001142859], the EC50 falls from over 300 µM to 0.712 µM.

`CCCn1cc(SCC(=O)NCc2ccco2)c2ccccc21` [MLS000095681] and `COc1ccc(CNC(=O)CN(Cc2ccco2)C(=O)CCC(=O)Nc2ccccn2)cc1` [SMR000600509] cannot be ordered by EC50: over 300 µM for the first, over 300 µM for the second.

`O=C(COC(=O)C1CCN(S(=O)(=O)c2ccccc2)CC1)NC(=O)c1ccc(OC(F)F)cc1` [MLS000394677] and `Cc1cc(C)n2nc(C(=O)OCC(=O)NC(=O)c3ccccc3)nc2n1` [SMR000716574] cannot be ordered by EC50: over 300 µM for the first, over 300 µM for the second.

`CN1CCN(C(=O)Cn2ncc3c([nH]c4ccccc43)c2=O)CC1` [3-[2-(4-methylpiperazin-1-yl)-2-oxidanylidene-ethyl]-2H-pyridazino[4,5-b]indol-4-one] and `Cc1c(Br)c([N+](=O)[O-])nn1CCCC(=O)N1CCN(c2ccccc2)CC1` [SMR000206162] cannot be ordered by EC50: over 300 µM for the first, over 300 µM for the second.

Going from `O=C(COc1ccccc1[N+](=O)[O-])NN=Cc1ccncc1` to `S=c1[nH]c(-c2ccccc2)cn1N=Cc1ccncc1`, the EC50 falls from over 300 µM to 140 µM.

`Cc1cc(NC(=O)CSc2ccc3nnc(-c4cccs4)n3n2)no1` and `Cc1ccccc1NC(=O)CSc1nc(N)c(C#N)c(-c2cccs2)c1C#N` [2-(6-amino-3,5-dicyano-4-thiophen-2-ylpyridin-2-yl)sulfanyl-N-(2-methylphenyl)acetamide] cannot be ordered by EC50: over 300 µM for the first, over 300 µM for the second.

`COc1ccc(OC)c(C=NNC(=O)CCc2c(C)n[nH]c2C)c1` [MLS000769019] and `COc1ccc(OC)c(Nc2c3ccccc3nc3ccccc23)c1` [N-(2,5-dimethoxyphenyl)-9-acridinamine] cannot be ordered by EC50: over 300 µM for the first, over 300 µM for the second.

`CC(=O)CSc1nc(-c2cccs2)c(C#N)c(=O)[nH]1` [4-oxidanylidene-2-(2-oxidanylidenepropylsulfanyl)-6-thiophen-2-yl-1H-pyrimidine-5-carbonitrile] and `CCSc1nc(-c2ccccc2)c(C#N)c(=O)[nH]1` [2-ethylsulfanyl-4-oxidanylidene-6-phenyl-1H-pyrimidine-5-carbonitrile] cannot be ordered by EC50: over 300 µM for the first, over 300 µM for the second.

`CCn1c(SCC(=O)Nc2ccc(C(C)=O)cc2)nnc1C1CC1` [N-(4-acetylphenyl)-2-[(5-cyclopropyl-4-ethyl-1,2,4-triazol-3-yl)sulfanyl]acetamide] and `CCNC(=O)NC(=O)CSc1nc2ccccc2n1CCOC` [SMR000154706] cannot be ordered by EC50: over 300 µM for the first, over 300 µM for the second.

First: COc1cc([CH+][N-]NC(=O)c2ccc(O)cc2)ccc1Oc1ccc([N+](=O)[O-])cn1 [4-hydroxy-N-[[3-methoxy-4-(5-nitropyridin-2-yl)oxyphenyl]methylideneamino]benzamide;propan-2-ol]
Second: O=C(c1ccccc1)c1ccc(NCCCn2ccnc2)c([N+](=O)[O-])c1 [SMR000588423]
The EC50 of the first is higher: over 300 µM for the first, 6.85 µM for the second. The second is the more potent here.

`COc1cccc2cc(C(=O)OCc3ccccc3)c(=O)oc12` [(phenylmethyl) 8-methoxy-2-oxidanylidene-chromene-3-carboxylate] and `CNC(=O)c1cc2cccc(OC)c2oc1=O` cannot be ordered by EC50: over 300 µM for the first, over 300 µM for the second.

`CC1=NC(=O)NC(c2ccc(O)cc2)C1C(=O)OCC1CCCO1` (configuration not stated) and `CCOC(=O)N1CCC(NC(=O)c2cc3sccc3n2CC)CC1` [MLS000093129] cannot be ordered by EC50: over 300 µM for the first, over 300 µM for the second.

Going from `O=Cc1cn(CCC(=O)O)nc1-c1cccc2ccccc12` [3-(4-formyl-3-naphthalen-1-ylpyrazol-1-yl)propanoic acid] to `Cc1nc(Nc2ccccc2)sc1C(=O)c1ccccc1` [(2-anilino-4-methyl-1,3-thiazol-5-yl)(phenyl)methanone], the EC50 falls from over 300 µM to 19.8 µM. The second is the more potent here.

`COc1ccc2c(c1)-c1c(ssc1=S)C(C)(C)N2C(=O)CSC1=NCCS1` [2-(4,5-dihydrothiazol-2-ylthio)-1-(8-methoxy-4,4-dimethyl-1-sulfanylidene-5-dithiolo[3,4-c]quinolinyl)ethanone] and `COc1ccc2c(c1)-c1c(sn(-c3ccccc3)c1=S)C(C)(C)N2` cannot be ordered by EC50: over 300 µM for the first, over 300 µM for the second.

First: COc1ccc(C=C2SC(NCc3ccccc3)=NC2=O)cc1 [(5Z)-5-[(4-methoxyphenyl)methylidene]-2-[(phenylmethyl)amino]-1,3-thiazol-4-one]
Second: Cc1cccc(Nc2nc(N)c([N+](=O)[O-])c(NCc3ccccc3)n2)c1 [MLS000332785]
The EC50 of the first is 3.1-fold lower: 7.01 µM for the first, 21.4 µM for the second. The first is the more potent here.

`CCN(CC)C(=O)Cn1cc(C(=O)C(=O)Nc2ccc3c(c2)OCCO3)c2ccccc21` and `CCOC(=O)Cc1csc(NC(=O)c2c(O)c3ccccc3n(CCC(C)C)c2=O)n1` [SMR000284490] cannot be ordered by EC50: over 300 µM for the first, over 300 µM for the second.

Going from `CCC1(C)NC(=O)N(CC(=O)Nc2sc3c(c2C(N)=O)CCC3)C1=O` (configuration not stated) [2-[2-[4-ethyl-4-methyl-2,5-bis(oxidanylidene)imidazolidin-1-yl]ethanoylamino]-5,6-dihydro-4H-cyclopenta[b]thiophene-3-carboxamide] to `CCCc1cc(=O)oc2cc(C)c(CN3CCCC3)c(O)c12` [5-hydroxy-7-methyl-4-propyl-6-(1-pyrrolidinylmethyl)-2H-chromen-2-one], the EC50 rises from 30.3 µM to over 300 µM. The first is the more potent here.

`O=C(Nc1ccccc1)Nc1ccncc1` and `O=C(Nc1cccnc1)c1sc(Nc2ccccc2)nc1-c1ccccc1` [SMR000261858] cannot be ordered by EC50: over 300 µM for the first, over 300 µM for the second.

Going from `CC1(C)CC(=O)C=C(Nc2ccccn2)C1` to `Cc1cc2c(s1)NC(=O)CN=C2c1cccs1` [MLS000072965], the EC50 falls from over 300 µM to 33.1 µM.

`Cc1ccccc1-n1nnc2c(=O)oc3ccccc3c21` [1-(2-methylphenyl)chromeno[3,4-d]triazol-4-one] and `Cc1nn(-c2ccccc2)c(Cl)c1C(=O)NCc1cccs1` [MLS000394567] cannot be ordered by EC50: over 300 µM for the first, over 300 µM for the second.

`O=C(Oc1ccc(F)c(F)c1)c1ccc2c(=O)n3c(nc2c1)CCC3` [9-oxo-2,3-dihydro-1H-pyrrolo[2,1-b]quinazoline-6-carboxylic acid (3,4-difluorophenyl) ester] and `O=C(/[O+]=N/[CH-]c1ccc(N2CCCCC2)c([N+](=O)[O-])c1)c1ccc(Cl)cc1Cl` [MLS000326612] cannot be ordered by EC50: over 300 µM for the first, over 300 µM for the second.

Compared with `COc1cc(-c2cc(=O)c3c(O)c(OC)c(OC)c(O)c3o2)ccc1O` [5,8-dihydroxy-2-(4-hydroxy-3-methoxy-phenyl)-6,7-dimethoxy-chromone], `O=c1c(O)c(-c2ccc(O)c(O)c2)oc2cc(O)cc(O)c12` [2-(3,4-dihydroxyphenyl)-3,5,7-trihydroxy-chromone;hydrate] is 2.5-fold lower in EC50: 24.9 µM for the first, 10.1 µM for the second. The second is the more potent here.

`C=CCN1C(=O)NC(=O)/C(=C/c2ccc(OCC(=O)Nc3ccc(C)cc3)cc2)C1=O` [SMR000673044] and `COc1ccc(Nc2nc(-c3ccccc3)c(C(=O)Nc3cccnc3)s2)cc1` [MLS001018742] cannot be ordered by EC50: over 300 µM for the first, over 300 µM for the second.

Compared with `CCN(CC)CCCNc1nc(N)c([N+](=O)[O-])c(NCCO)n1` [SMR000436737], `COc1ccc(Nc2nc(NCCCN3CCOCC3)nc(N)c2[N+](=O)[O-])cc1` [N4-(4-methoxyphenyl)-N2-(3-morpholin-4-ylpropyl)-5-nitro-pyrimidine-2,4,6-triamine] is lower in EC50: over 300 µM for the first, 1.11 µM for the second. The second is the more potent here.

First: CC(=O)Nc1ccc(S(=O)(=O)N(Cc2cccnc2)Cc2cc3ccccc3nc2O)cc1 [N-[4-[(2-oxidanylidene-1H-quinolin-3-yl)methyl-(pyridin-3-ylmethyl)sulfamoyl]phenyl]ethanamide]
Second: O=C(CN(Cc1ccccc1)C(=O)CCC(=O)Nc1ccccn1)NCc1ccc(F)cc1
The EC50 of the first is higher: over 300 µM for the first, 58.8 µM for the second.

Going from `COC(=O)c1ccc(CSc2nnc(-c3ccncc3)o2)o1` [methyl 5-({[5-(4-pyridinyl)-1,3,4-oxadiazol-2-yl]thio}methyl)-2-furoate] to `Fc1ccc(CSc2nnc(-c3cccnc3)o2)cc1` [2-[(4-fluorophenyl)methylthio]-5-(3-pyridinyl)-1,3,4-oxadiazole], the EC50 rises from 12.5 µM to over 300 µM.

`CCN1CCN(Cc2ccc(NC(=O)c3ccc(C)c(/C=C/c4cnc(Nc5cc(N6CCNCC6)nc(C)n5)cn4)c3)cc2C(F)(F)F)CC1` [SMR000718284] and `CCN1CCN(c2nc(N)c([N+](=O)[O-])c(Nc3cccc(C)c3)n2)CC1` [2-(4-ethylpiperazin-1-yl)-4-N-(3-methylphenyl)-5-nitropyrimidine-4,6-diamine] cannot be ordered by EC50: over 300 µM for the first, over 300 µM for the second.

First: CN(C(=O)CSc1nnc(-c2c[nH]c3ccccc23)o1)C1CCS(=O)(=O)C1 (configuration not stated) [N-(1,1-dioxothiolan-3-yl)-2-[[(2Z)-2-indol-3-ylidene-3H-1,3,4-oxadiazol-5-yl]sulfanyl]-N-methylacetamide]
Second: C[C@H]1CCCC(=O)CCCC=Cc2cc(O)cc(O)c2C(=O)O1 [(11S)-11-methyl-15,17-bis(oxidanyl)-12-oxabicyclo[12.4.0]octadeca-1(18),2,14,16-tetraene-7,13-dione]
The EC50 of the first is higher: over 300 µM for the first, 5.45 µM for the second.

First: CC(C)(C)NC(=O)NC(=O)COc1ccc(Br)cc1Br [SMR000254856]
Second: N=C(N)N/N=C1/C(=O)Nc2ccc(Br)cc21 [2-[(5-bromo-2-oxo-3-indolyl)amino]guanidine;hydrochloride]
The EC50 of the first is higher: over 300 µM for the first, 31.4 µM for the second. The second is the more potent here.

Going from `O=C(Nc1sccc1C(=O)N1CCOCC1)c1cccnc1` [N-[3-[4-morpholinyl(oxo)methyl]-2-thiophenyl]-3-pyridinecarboxamide] to `COc1cccc2c1cc1c(=O)n(CC(=O)NCCCN3CCN(C)CC3)nc(C)n12`, the EC50 rises from 29.2 µM to over 300 µM.

`CC(C)(C)c1ccc(C=Nn2cnnc2)cc1` [MLS000660819] and `CN(C)c1nc(-c2ccccc2)nc(-c2ccc(Cl)cc2)c1C#N` [4-(4-chlorophenyl)-6-(dimethylamino)-2-phenylpyrimidine-5-carbonitrile] cannot be ordered by EC50: over 300 µM for the first, over 300 µM for the second.

Going from `CCOc1ccc(-c2csc3[n+]2CC[N-]3)cc1[N+](=O)[O-]` to `N#CCCn1cc(CN=O)c(-c2cccc([N+](=O)[O-])c2)n1` [3-[4-(hydroxyiminomethyl)-3-(3-nitrophenyl)pyrazol-1-yl]propanenitrile], the EC50 falls from over 300 µM to 50.1 µM.

Work on `CC(C=Cc1ccccc1F)=NNC(=O)C(C)C` [N-[[(E)-4-(2-fluorophenyl)but-3-en-2-ylidene]amino]-2-methylpropanamide] yielded an EC50 of over 300 µM.
